Read-outs that look alike come from different tables or passages of the source.
Columns and labels:
[1] = cited from earlier work
[2] = Measurement of CFZ in tissues, partition ratios after prolonged oral dosing; type: in vivo, mice (male C57Bl6); conditions: mice, after eight week washout period
[3] = humans; cited from earlier work
[4] = In vitro precipitation / solubilization of CFZ in aqueous media; type: physicochemical; conditions: ~5 M HCl, diprotonated state
[5] = mice; cited from earlier work

**Q.** For `CC(C)/N=c1\cc2n(-c3ccc(Cl)cc3)c3ccccc3nc-2cc1Nc1ccc(Cl)cc1` [CFZ, Clofazimine], which half-life ([1]; oral, after an acute dose) is on record?
**A.** hours to days

**Q.** What about the half-life ([1]; upon prolonged oral administration) of the same compound?
**A.** weeks to months

**Q.** What about the “CFZ mass retained in spleen” value [2] of the same compound?
**A.** exceeded its combined mass retained in the other organs

**Q.** What about the “pharmacokinetic half-life t1/2” value [3] of the same compound?
**A.** ~ 70 days

**Q.** And the “pH at which CFZ was completely solubilized in aqueous media” value [4]?
**A.** < 1

**Q.** And the “pharmacokinetic half-life t1/2” value [5]?
**A.** 170 h
